pIC50: −log10 of the molar value. “And” between values parts separate entries of the source, which are not always exact repeats. Equal entries are not always repeated.
Key:
[1] = tested on: MALT1 protein in DLBCL cells; set-up: method as in PMID 30024860, PMID 23238017; conditions: result in words; cited from earlier work
[2] = tested on: BCL10 and MALT1 mRNA in TMD8 cells; test: BCL10 and MALT1 mRNA expression, qRT-PCR; format: cell-based, human; conditions: TMD8, 1 μM
[3] = tested on: C57BL/6 mice; test: Long-term (28 days) in vivo toxicity; set-up: species or system mouse
Method: Long-term in vivo toxicity experiments. WT C57/BL6 (The Jackson Laboratory) male and female mice were treated daily with 50 mg/kg M1i-124 or vehicle control for 28 days. At the time of sacrifice, blood was obtained for complete blood count, alanine transaminase, albumin, and total bilirubin (Abaxis). Livers from control and M1i-124 treated mice were collected for H&E analysis. […]

[4] = molecular target: T1, CYP1A2 (Homo sapiens, UniProt P05177); test: Reversible CYP inhibition in human liver microsomes; format: in vitro ADME; conditions: read-out: Direct inhibition (IC50) CYP1A2
T1 construct: from tissue; host or cells: pooled, mixed-gender human liver microsomes
T1 sequence (P05177 whole entry): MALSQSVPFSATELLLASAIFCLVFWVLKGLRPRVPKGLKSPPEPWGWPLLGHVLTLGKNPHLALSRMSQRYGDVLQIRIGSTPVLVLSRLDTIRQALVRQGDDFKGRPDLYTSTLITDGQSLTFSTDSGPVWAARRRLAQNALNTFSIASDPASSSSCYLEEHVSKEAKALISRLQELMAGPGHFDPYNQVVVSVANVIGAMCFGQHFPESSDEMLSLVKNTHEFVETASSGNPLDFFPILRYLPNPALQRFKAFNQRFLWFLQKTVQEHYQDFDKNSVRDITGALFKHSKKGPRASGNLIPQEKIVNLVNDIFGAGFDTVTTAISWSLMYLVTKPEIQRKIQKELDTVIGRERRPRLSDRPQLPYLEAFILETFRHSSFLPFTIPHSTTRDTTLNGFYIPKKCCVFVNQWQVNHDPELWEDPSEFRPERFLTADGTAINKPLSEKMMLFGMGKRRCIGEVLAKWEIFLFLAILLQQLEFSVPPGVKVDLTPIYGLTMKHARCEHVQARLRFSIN
Method: (§1) Pharmacokinetic and cytochrome P450 inhibition studies. Studies were performed with the assistance of Touchstone Biosciences (Plymouth Meeting, Pennsylvania). […]
(§2) For reversible CYP […]
(§3) inhibition studies, different concentrations of M1i-124 were added to 0.2 mg/ml pooled, mixed-gender human liver microsomes (HLM). Each CYP450 isoform-specific probe substrate (CYP1A2, CYP2C9, CYP2C19, CYP2D6, and CYP3A4) was incubated individually with HLM and M1i-124 or corresponding positive control inhibitor (Phenacetin, Tolbutamaide, S-Mephenytoin, Dextromethorphan, Midazolam, and Testosterone). Samples were analyzed for metabolites of the probe substrates by LC-MS/MS at each of the test compound concentrations. A decrease in the formation of the metabolites compared to vehicle control was used to calculate the […]

[5] = molecular target: T2, CYP3A4M (Homo sapiens, UniProt P08684); test: as above; format: in vitro ADME; conditions: read-out: Direct inhibition (IC50) CYP3A4M
T2 construct: from tissue; host or cells: pooled, mixed-gender human liver microsomes
T2 sequence (P08684 whole entry): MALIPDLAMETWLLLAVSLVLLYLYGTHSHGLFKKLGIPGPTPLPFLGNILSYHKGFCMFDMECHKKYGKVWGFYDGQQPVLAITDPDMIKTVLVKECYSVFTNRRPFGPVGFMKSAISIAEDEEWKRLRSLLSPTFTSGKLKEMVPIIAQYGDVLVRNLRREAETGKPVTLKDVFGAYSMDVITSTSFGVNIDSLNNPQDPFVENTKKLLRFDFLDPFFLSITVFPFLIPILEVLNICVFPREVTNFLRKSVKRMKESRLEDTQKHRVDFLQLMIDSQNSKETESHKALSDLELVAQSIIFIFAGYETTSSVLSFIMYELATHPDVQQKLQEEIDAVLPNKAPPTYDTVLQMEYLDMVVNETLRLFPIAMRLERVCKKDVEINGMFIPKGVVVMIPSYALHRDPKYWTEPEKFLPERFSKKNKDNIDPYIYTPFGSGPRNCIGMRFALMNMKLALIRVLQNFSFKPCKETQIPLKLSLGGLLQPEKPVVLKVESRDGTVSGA
Method: as §1, §2, §3

[6] = molecular target: T3, CYP2D6 (Homo sapiens, UniProt P10635); test: as above; format: in vitro ADME; conditions: read-out: Direct inhibition (IC50) CYP2D6
T3 construct: from tissue; host or cells: pooled, mixed-gender human liver microsomes
T3 sequence (P10635 whole entry): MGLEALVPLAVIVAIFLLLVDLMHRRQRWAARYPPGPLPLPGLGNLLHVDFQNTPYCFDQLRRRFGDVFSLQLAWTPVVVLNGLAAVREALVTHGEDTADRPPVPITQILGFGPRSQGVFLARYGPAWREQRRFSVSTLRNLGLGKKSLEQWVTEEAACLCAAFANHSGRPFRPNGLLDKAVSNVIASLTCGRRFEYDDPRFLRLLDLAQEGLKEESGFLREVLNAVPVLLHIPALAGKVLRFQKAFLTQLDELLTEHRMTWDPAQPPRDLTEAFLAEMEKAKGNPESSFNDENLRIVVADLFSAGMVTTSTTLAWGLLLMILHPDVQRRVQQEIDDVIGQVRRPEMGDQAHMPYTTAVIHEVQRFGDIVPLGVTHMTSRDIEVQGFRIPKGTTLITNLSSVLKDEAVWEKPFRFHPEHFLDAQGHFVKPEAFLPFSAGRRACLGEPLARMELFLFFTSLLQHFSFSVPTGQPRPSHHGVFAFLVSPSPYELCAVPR
Method: as §1, §2, §3

[7] = molecular target: T4, CYP2C9 (Homo sapiens, UniProt P11712); test: as above; format: in vitro ADME; conditions: read-out: Direct inhibition (IC50) CYP2C9
T4 construct: from tissue; host or cells: pooled, mixed-gender human liver microsomes
T4 sequence (P11712 whole entry): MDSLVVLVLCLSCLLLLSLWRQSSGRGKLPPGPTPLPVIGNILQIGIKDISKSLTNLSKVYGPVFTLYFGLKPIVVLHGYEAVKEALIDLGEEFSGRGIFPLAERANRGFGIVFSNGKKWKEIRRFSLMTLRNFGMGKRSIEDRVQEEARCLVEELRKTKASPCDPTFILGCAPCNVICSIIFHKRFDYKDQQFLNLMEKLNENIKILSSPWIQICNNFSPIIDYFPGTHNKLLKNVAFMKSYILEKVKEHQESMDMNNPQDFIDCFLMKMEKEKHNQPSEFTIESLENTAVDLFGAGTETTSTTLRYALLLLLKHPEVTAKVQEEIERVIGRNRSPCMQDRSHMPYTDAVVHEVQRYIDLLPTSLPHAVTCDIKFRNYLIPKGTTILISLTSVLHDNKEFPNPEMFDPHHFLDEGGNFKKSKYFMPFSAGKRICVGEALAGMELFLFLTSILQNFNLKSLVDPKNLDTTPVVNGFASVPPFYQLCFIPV
Method: as §1, §2, §3

[8] = molecular target: T5, CYP3A4T (Homo sapiens, UniProt P08684); test: as above; format: in vitro ADME; conditions: read-out: Direct inhibition (IC50) CYP3A4T
T5 construct: from tissue; host or cells: pooled, mixed-gender human liver microsomes
T5 sequence (P08684 whole entry): as the sequence (P08684 whole entry) above
Method: as §1, §2, §3

[9] = molecular target: T6, CYP2C19 (Homo sapiens, UniProt P33261); test: as above; format: in vitro ADME; conditions: read-out: Direct inhibition (IC50) CYP2C19
T6 construct: from tissue; host or cells: pooled, mixed-gender human liver microsomes
T6 sequence (P33261 whole entry): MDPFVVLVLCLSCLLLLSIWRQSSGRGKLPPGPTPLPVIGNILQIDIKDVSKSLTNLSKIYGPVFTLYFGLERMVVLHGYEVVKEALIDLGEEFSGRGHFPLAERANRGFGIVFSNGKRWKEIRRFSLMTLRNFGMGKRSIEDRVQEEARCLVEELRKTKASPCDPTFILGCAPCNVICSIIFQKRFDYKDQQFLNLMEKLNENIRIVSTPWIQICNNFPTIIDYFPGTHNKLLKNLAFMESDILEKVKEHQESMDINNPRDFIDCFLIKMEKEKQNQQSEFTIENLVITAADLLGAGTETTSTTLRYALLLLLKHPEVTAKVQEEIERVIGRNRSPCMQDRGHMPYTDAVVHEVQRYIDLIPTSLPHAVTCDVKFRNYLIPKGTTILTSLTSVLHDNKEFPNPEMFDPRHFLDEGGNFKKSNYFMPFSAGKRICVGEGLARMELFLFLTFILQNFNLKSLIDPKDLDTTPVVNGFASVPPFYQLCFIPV
Method: as §1, §2, §3

[10] = tested on: TMD8 cells; test: CellTiter-Glo ATP viability; format: cell-based, human
[11] = tested on: OCI-Ly3 cells; test: Apoptosis, annexin V/SYTOX Blue flow cytometry; format: cell-based, human
Method: (§4) Cell proliferation, viability, and apoptosis assays. […]
Annexin V Alexa 488
(ThermoFisher Scientific, Cat# A13201) and SYTOX Blue Dead Cell (ThermoFisher Scientific, Cat# S34857) stains were used to detect apoptosis in DLBCL cells after treatment with 1 µM compounds for 8 days in TMD8 and OCI-Ly1 and for 5 days in OCI-Ly3 cells, then analyzed with flow cytometry. The percentages of cells in early and late apoptosis were combined for quantification. For CellTrace Violet, CellTiter-glo, and Annexin V apoptosis assays, cell were cultured in media with 50% of the usual serum. […]

[12] = tested on: OCI-Ly3 xenografts; test: OCI-Ly3 xenograft in NSG mice; format: in vivo, mouse; conditions: daily i.p., vs DMSO, result in words
Text: TMD8 cells were engrafted into 8-week-old female NOD.CB17-Prkdc^scid/J (NOD-SCID) mice from The Jackson Laboratory by subcutaneous injection of 10 × 10^6 cells resuspended in 50% Cultrex Basement Membrane Extract (R&D Systems, catalog 3632-010-02) into the right flank. OCI-Ly3 cells were engrafted into 5-week-old female NOD.Cg-Prkdc^scid Il2rg^tm1Wjl/SzJ (NSG) mice from The Jackson Laboratory by subcutaneous injection of 2.5 × 10^6 cells resuspended in Cultrex as above. OCI-Ly1 cells were engrafted into 6.5-week-old female NSG mice from The Jackson Laboratory by subcutaneous injection of 20 × 10^6 cells resuspended in Cultrex as above. For all xenograft models, when tumors reached an average volume of 100 mm^3, mice were randomized to receive M1i-124 (50 mg/kg i.p. per day), or equivalent volume of DMSO vehicle (50 μL i.p. per day). […] Tumor size was measured 3 times a week using a caliper and calculated using the formula (smallest diameter^2 × largest diameter)/2. Mice were sacrificed 24 hours after the last injection. Mice were sacrificed when the largest tumors reached 2,500 mm^3. For TMD8 xenograft experiments, tumors and various organs, including lung, heart, liver, and kidney, were collected and fixed in 10% buffered formalin, embedded in FFPE blocks, sectioned, and stained with H&E. Sections were evaluated by a board-certified pathologist.

[13] = tested on: OCI-Ly3 cells; test: CellTiter-Glo ATP viability; format: cell-based, human
Method: as §4
Fluorescent Intensity (MFI) was analyzed by FlowJo (version 10.8.0, BD). CellTiter-glo luminescence assay (Promega, Cat# G7570) was used to quantify ATP levels as a surrogate marker of metabolic viability in DLBCL cells treated with compounds for 6-8 days. […]
The percentages of cells in early and late apoptosis were combined for quantification. For CellTrace Violet, CellTiter-glo, and Annexin V apoptosis assays, cell were cultured in media with 50% of the usual serum. […]

[14] = 28 days, vs control, result in words

## CN1CCCC(CN2c3ccccc3Sc3ccccc32)C1 (stereo not shown) [Mepazine, mepazine, reference compound]
[1]
  MALT1 protein level: unaffected

## O=S(=O)(NCc1ccc2c(c1)OCO2)c1ccc(Cc2ccc(S(=O)(=O)NCc3ccc4c(c3)OCO4)cc2)cc1 [M1i-124]
[2]; 48 hrs
  BCL10 mRNA (normalized): 1.102 and 1.661 and 1.831
[2]; 72 hrs
  BCL10 mRNA (normalized): 2.063 and 2.239 and 2.314
  MALT1 mRNA (normalized): 1.674 and 1.428 and 1.962
[3]; 28 days, result in words
  Albumin: decrease in albumin
  alanine transaminase or total bilirubin: did not result in a change
  liver histology (H&E): no appreciable difference
[3]; [14]
  blood counts (white blood cell count, hemoglobin, platelet count): did not result in a statistically significant change
  change in weight: did not result in a statistically significant change
[3]; C57BL/6 mice, 50 mg/kg daily, 28 days, 50 mg/kg
  % change in body weight: 9.778% and 0% and 8.3% and 7.514% and 2.89% and 0.5714% and 7.273% and 4.7619%
[3]; individual mice
  ALT: 35 U/L and 100 U/L and 26 U/L and 120 U/L and 180 U/L and 125 U/L
  Albumin: 3.5 g/dL and 2.5 g/dL and 2.1 g/dL and 1.9 g/dL and 3.2 g/dL
  Hemoglobin: 13.2 g/dL and 10.9 g/dL and 13.7 g/dL and 12.6 g/dL and 14 g/dL and 12 g/dL and 10.3 g/dL and 11.3 g/dL and 12.9 g/dL
  Platelets: 439 10^9/L and 412 10^9/L and 524 10^9/L and 394 10^9/L and 557 10^9/L and 522 10^9/L and 479 10^9/L and 381 10^9/L and 186 10^9/L
  Total Bilirubin: 0.3 mg/dL and 0.4 mg/dL and 0.2 mg/dL
  WBC: 8.15 10^9/L and 3.97 10^9/L and 4.01 10^9/L and 2.58 10^9/L and 5.28 10^9/L and 4.82 10^9/L and 3.12 10^9/L and 3.23 10^9/L and 1.49 10^9/L
[3]; result in words
  in vivo tolerability: well tolerated with minimal toxicity
[4]
  pIC50: < 4.00
[5]
  pIC50: 4.55
[6]
  pIC50: 4.89
[7]
  pIC50: 4.68
[8]
  pIC50: 4.40
[9]
  pIC50: 4.55
[10]; TMD8, M1i-124 (µM) 0.02
  Percent cell viability (ATP luminescence): 98.5399% and 121.237% and 91.8987%
[10]; TMD8, M1i-124 (µM) 0.05
  Percent cell viability (ATP luminescence): 110.558% and 93.9485% and 106.792%
[10]; TMD8, M1i-124 (µM) 0.1
  Percent cell viability (ATP luminescence): 120.312% and 100.889%
[10]; TMD8, M1i-124 (µM) 0.2
  Percent cell viability (ATP luminescence): 81.1675% and 99.7783% and 71.7208%
[11]; 1 μM, result in words
  apoptosis of OCI-Ly3 cells: selectively induced apoptosis
[11]; OCI-Ly3
  Percent Apoptotic cells: 91.3% and 82.7% and 75% and 93.6% and 88.1% and 93.3% and 87.8% and 75.8%
[12]
  OCI-Ly3 xenograft tumor growth: significant decrease in tumor growth
[13]; Homo sapiens, OCI-Ly3 cells, read-out: 50% cytotoxic concentration
  pIC50: ~6.30
[13]; OCI-Ly3, M1i-124 (µM) 0.02
  Percent viability (ATP level): 93.0259% and 81.697% and 95.3842% and 87.3232%
[13]; OCI-Ly3, M1i-124 (µM) 0.05
  Percent viability (ATP level): 107.435% and 78.839% and 101.939% and 104.596%
[13]; OCI-Ly3, M1i-124 (µM) 0.1
  Percent viability (ATP level): 97.8481% and 79.4097% and 92.5817% and 82.7797%
[13]; OCI-Ly3, M1i-124 (µM) 0.2
  Percent viability (ATP level): 93.5879% and 72.4634% and 88.6927% and 76.6947%
[13]; OCI-Ly3, M1i-124 (µM) 5
  Percent viability (ATP level): 38.3426% and 24.1881% and 19.3497% and 28.4648%
[13]; result in words
  viability of OCI-Ly3 cells: dose-dependent decrease in viability

Reference: PMC11996864, “A small-molecule inhibitor of BCL10-MALT1 interaction abrogates progression of diffuse large B cell lymphoma” (The Journal of Clinical Investigation, 2025)
